From PubChem BioAssay AID212 (DTP/NCI, 2004)
Values joined by “and” are separate entries in the source; they are usually repeats but may differ in a detail not shown here. Equal entries are not always repeated. Records with an inconclusive call do not appear.

Test system: BDF1 mice, colon carcinoma 38 sc, T/C %
Assay: NCI In Vivo Anticancer Drug Screen. Data for tumor model Colon Carcinoma 38 (subcutaneous) in B6D2F1 (BDF1) mice
Conditions: endpoint: median tumor weight (est.), higher = larger tumour
Procedure: The antitumor activity of compounds was measured in mice bearing transplantable tumors. Survival or tumor size were measured and the results are expressed as the measurement made in the treated group (T) divided by the measurement made in the vehicle treated control group (C). The tumor model used in this assay is Colon Carcinoma 38 (subcutaneous) in B6D2F1 (BDF1) mice

[1] = dose: 12.5 mg/kg/injection, schedule: Q07DX002 (ip), vehicle: saline with Tween-80
[2] = dose: 50.0 mg/kg/injection, schedule: Q07DX002 (ip), vehicle: saline with Tween-80
[3] = dose: 100.0 mg/kg/injection, schedule: Q07DX002 (ip), vehicle: saline with Tween-80
[4] = dose: 200.0 mg/kg/injection, schedule: Q07DX002 (ip), vehicle: saline with Tween-80
[5] = dose: 400.0 mg/kg/injection, schedule: Q07DX002 (ip), vehicle: saline with Tween-80

## COC1/C=C/O[C@@]2(C)Oc3c(C)c(O)c4c(O)c(cc(O)c4c3C2=O)NC(=O)/C(C)=C\C=C\[C@H](C)C(O)[C@@H](C)[C@@H](O)[C@@H](C)[C@H](OC(C)=O)[C@@H]1C (some centres undefined)
[1]
  T/C: 72 % of control
[2]
  T/C: 79 % of control
[3]
  T/C: 84 % of control
[4]
  T/C: 77 % of control
[5]
  T/C: 98 % of control

## Nc1n[n+](-c2ccc(Cl)cc2)no1
dose: 6.25 mg/kg/injection, schedule: Q07DX002 (ip), vehicle: water
  T/C: 64 % of control and 78 % of control
dose: 12.5 mg/kg/injection, schedule: Q07DX002 (ip), vehicle: water
  T/C: 85 % of control and 87 % of control
dose: 25.0 mg/kg/injection, schedule: Q07DX002 (ip), vehicle: water
  T/C: 57 % of control
dose: 50.0 mg/kg/injection, schedule: Q07DX002 (ip), vehicle: water
  T/C: 119 % of control

## Cc1ccc(-c2cc(=O)c3cccc(CC(=O)O)c3o2)cc1
[3]
  T/C: 83 % of control
[4]
  T/C: 50 % of control

## COc1cc2cc(c1Cl)N(C)C(=O)CC(OC(=O)CC(C)C)C1(C)OC1C(C)C1CC(O)(NC(=O)O1)C(OC)/C=C/C=C(C)C2 (centres undefined)
dose: 6.2 micrograms/kg/injection, schedule: Q07DX003 (ip), vehicle: saline + alcohol
  T/C: 121 % of control
dose: 25.0 micrograms/kg/injection, schedule: Q07DX003 (ip), vehicle: saline + alcohol
  T/C: 75 % of control

## COC1=C(OC)C(=O)C(C/C=C(\C)CC/C=C(\C)CC/C=C(\C)CC/C=C(\C)CC/C=C(\C)CC/C=C(\C)CC/C=C(\C)CC/C=C(\C)CC/C=C(\C)CCC=C(C)C)=C(C)C1=O
[1]
  T/C: 202 % of control
[2]
  T/C: 86 % of control
[3]
  T/C: 83 % of control
[4]
  T/C: 121 % of control
[5]
  T/C: 110 % of control

## O=C(O)C1(C(=O)O)CCC1.[NH2-].[NH2-].[Pt+2]
dose: 6.25 mg/kg/injection, schedule: Q07DX002 (ip), vehicle: dextrose
  T/C: 81 % of control
dose: 6.25 mg/kg/injection, schedule: Q07DX003 (ip), vehicle: other
  T/C: 53 % of control
dose: 12.5 mg/kg/injection, schedule: Q07DX003 (ip), vehicle: other
  T/C: 81 % of control
dose: 25.0 mg/kg/injection, schedule: Q07DX003 (ip), vehicle: dextrose
  T/C: 64 % of control
dose: 25.0 mg/kg/injection, schedule: Q07DX003 (ip), vehicle: other
  T/C: 74 % of control
dose: 50.0 mg/kg/injection, schedule: Q07DX003 (ip), vehicle: dextrose
  T/C: 34 % of control
dose: 50.0 mg/kg/injection, schedule: Q07DX003 (ip), vehicle: other
  T/C: 42 % of control
dose: 100.0 mg/kg/injection, schedule: Q07DX003 (ip), vehicle: dextrose
  T/C: 25 % of control
dose: 100.0 mg/kg/injection, schedule: Q07DX003 (ip), vehicle: other
  T/C: 21 % of control

## F[B-](F)(F)F
dose: 12.5 mg/kg/injection, schedule: Q07DX002 (ip), vehicle: gum acacia
  T/C: 105 % of control
dose: 25.0 mg/kg/injection, schedule: Q07DX002 (ip), vehicle: gum acacia
  T/C: 90 % of control
dose: 50.0 mg/kg/injection, schedule: Q07DX002 (ip), vehicle: gum acacia
  T/C: 95 % of control
dose: 200.0 mg/kg/injection, schedule: Q07DX002 (ip), vehicle: gum acacia
  T/C: 64 % of control
dose: 400.0 mg/kg/injection, schedule: Q07DX002 (ip), vehicle: gum acacia
  T/C: 77 % of control

## Cc1c(N)nc([C@H](CC(N)=O)NC[C@H](N)C(N)=O)nc1C(=O)N[C@H](C(=O)N[C@H](C)[C@@H](O)[C@H](C)C(=O)N[C@H](C(=O)NCCc1nc(-c2nc(C(=O)NCCC[S+](C)C)cs2)cs1)[C@@H](C)O)C(OC1OC(CO)C(O)C(O)C1OC1OC(CO)C(O)C(OC(N)=O)C1O)c1cnc[nH]1 (some centres undefined)
dose: 3.0 mg/kg/injection, schedule: Q07DX003 (ip), vehicle: saline
  T/C: 62 % of control
dose: 6.0 mg/kg/injection, schedule: Q07DX003 (ip), vehicle: saline
  T/C: 88 % of control
dose: 12.0 mg/kg/injection, schedule: Q07DX003 (ip), vehicle: saline
  T/C: 63 % of control
dose: 24.0 mg/kg/injection, schedule: Q07DX003 (ip), vehicle: saline
  T/C: 85 % of control
dose: 48.0 mg/kg/injection, schedule: Q07DX003 (ip), vehicle: saline
  T/C: 60 % of control

## COC(=O)Nc1nc2ccc(C3(c4ccc(F)cc4)OCCO3)cc2[nH]1
dose: 12.5 mg/kg/injection, schedule: Q07DX002 (ip), vehicle: saline
  T/C: 111 % of control and 90 % of control
dose: 25.0 mg/kg/injection, schedule: Q07DX002 (ip), vehicle: saline
  T/C: 70 % of control and 87 % of control
